Measured values published in patent US20200385371A1 (Propellon Therapeutics Inc., priority 2017, published 2020).

Assays:
WDR5 [1] = target: T1, WDR5 (Homo sapiens, UniProt P61964); test: Surface Plasmon Resonance (SPR) assay; type: binding; design: Full length WDR5 with an N-terminal His tag and C-terminal AviTag; His tag (N); made in house; host or cells: E. coli; settings: read-out: SPR Kd
Summary of the method: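 Full-length biotinylated WDR5 (N-His, C-AviTag, E. coli) captured (~3000 RU) on streptavidin SA chip; Biacore T200. HBS-EP pH 7.4 plus 5% DMSO running buffer, 40 μl/min.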

MV4-11 cells = test: Cell proliferation assay (ATPlite); type: cell-based; settings: Homo sapiens, 120 h; MV4-11 cells, five days; read-out: GI MV411 EC50
Summary of the method: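 ATPlite luminescence after five days' culture (37° C, 5% CO2) gives viability. Compounds dosed in 10 concentrations up to 10 μM against DMSO; 1,000 cells/well seeded in Alpha-MEM/10% FBS.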

WDR5 [2] = target: T1, WDR5; test: Fluorescence Polarization (FP) binding assay
Summary of the method: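 Buffer was pH 6.5 sodium phosphate (80 mM) with 20 mM KCl and 0.008% Triton X-100; 9-Ala-FAM probe at 20 nM used 0.05 μM WDR5 and 480/540 nm polarization, H3 (1-15) probe at 30 nM used 0.3 μM WDR5 and 485/528 nm. Quadruplicate data were hyperbola-fitted to give Kdisp.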

Compound	Kd (WDR5 [1]) [nM]	EC50 (MV4-11 cells) [nM]	IC50 (WDR5 [2]) [nM]
C[C@@H]1CN(c2nccc(-c3c(F)cc(N4CCN(C)[C@@H](C)C4)c(NC(=O)c4c[nH]c(=O)cc4C(F)F)c3F)n2)C[C@H](C)O1 [Example 59, 4-(Difluoromethyl)-N-(3-(2-((2S,6R)-2,6-dimethylmorpholino)pyrimidin-4-yl)-6-((S)-3,4-dimethylpiperazin-1-yl)-2,4-difluorophenyl)-6-oxo-1,6-dihydropyridine-3-carboxamide]	1.14	56.6	14.4
C[C@@H]1CN(c2cc(F)c(C3=CCCN(c4ncc(C#N)s4)C3)c(F)c2NC(=O)c2c[nH]c(=O)cc2C(F)(F)F)C[C@H](C)N1C [Example 149, N-(3-(1-(5-cyanothiazol-2-yl)-1,2,5,6-tetrahydropyridin-3-yl)-2,4-difluoro-6-((3S,5R)-3,4,5-trimethylpiperazin-1-yl)phenyl)-6-oxo-4-(trifluoromethyl)-1,6-dihydropyridine-3-carboxamide]	1.8	106	14.6
C[C@@H]1CN(c2nc(-c3c(F)cc(N4CCN(C)[C@@H](C)C4)c(NC(=O)c4c[nH]c(=O)cc4C(F)F)c3F)cs2)C[C@H](C)O1 [Example 132, 4-(Difluoromethyl)-N-(3-(2-((2S,6R)-2,6-dimethylmorpholino)thiazol-4-yl)-6-((S)-3,4-dimethylpiperazin-1-yl)-2,4-difluorophenyl)-6-oxo-1,6-dihydropyridine-3-carboxamide]	2.01	132	12.4
C[C@@H]1CN(c2ncc(-c3c(F)cc(N4C[C@@H](C)N(C)[C@@H](C)C4)c(NC(=O)c4c[nH]c(=O)cc4C(F)F)c3F)cn2)C[C@H](C)O1 [Example 111, 4-(Difluoromethyl)-N-(3-(2-((2S,6R)-2,6-dimethylmorpholino)pyrimidin-5-yl)-2,4-difluoro-6-((3S,5R)-3,4,5-trimethylpiperazin-1-yl)phenyl)-6-oxo-1,6-dihydropyridine-3-carboxamide]	1.29	9.48	14.1
C[C@H]1CN(c2cc(F)c(C3=CCN(C(=O)OC4CC(F)(F)C4)CC3)c(F)c2NC(=O)c2c[nH]c(=O)cc2C(F)F)CCN1C [Example 42, 3,3-Difluorocyclobutyl (S)-4-(3-(4-(difluoromethyl)-6-oxo-1,6-dihydropyridine-3-carboxamido)-4-(3,4-dimethylpiperazin-1-yl)-2,6-difluorophenyl)-3,6-dihydropyridine-1(2H)-carboxylate]	2.38	281	11.2
C[C@@H]1CN(c2cc(F)c(-c3cnc(N4CCOCC4)c(C#N)c3)c(F)c2NC(=O)c2c[nH]c(=O)cc2C(F)(F)F)C[C@H](C)N1C [Example 64, N-(3-(5-cyano-6-morpholinopyridin-3-yl)-2,4-difluoro-6-((3S,5R)-3,4,5-trimethylpiperazin-1-yl)phenyl)-6-oxo-4-(trifluoromethyl)-1,6-dihydropyridine-3-carboxamide]	2.48	32.7	14.9
COc1cc(N2CC=C(c3c(F)cc(N4CCN(C)[C@@H](C)C4)c(NC(=O)c4c[nH]c(=O)cc4C(F)(F)F)c3F)CC2)ncn1 [Example 76, (S)—N-(6-(3,4-dimethylpiperazin-1-yl)-2,4-difluoro-3-(1-(6-methoxypyrimidin-4-yl)-1,2,3,6-tetrahydropyridin-4-yl)phenyl)-6-oxo-4-(trifluoromethyl)-1,6-dihydropyridine-3-carboxamide]	1.42	42	21.6
C[C@@H]1CN(c2ccc(-c3c(F)cc(N4CCN(C)[C@@H](C)C4)c(NC(=O)c4ccc(F)cc4C(F)F)c3F)cn2)C[C@H](C)O1 [Example 178, 2-(Difluoromethyl)-N-(3-(6-((2S,6R)-2,6-dimethylmorpholino)pyridin-3-yl)-6-((S)-3,4-dimethylpiperazin-1-yl)-2,4-difluorophenyl)-4-fluorobenzamide]	1.42	189	19.7
COc1cc(N2CCC=C(c3c(F)cc(N4CCN(C)[C@@H](C)C4)c(NC(=O)c4c[nH]c(=O)cc4C(F)F)c3F)C2)ncn1 [Example 79, (S)-4-(difluoromethyl)-N-(6-(3,4-dimethylpiperazin-1-yl)-2,4-difluoro-3-(1-(6-methoxypyrimidin-4-yl)-1,2,5,6-tetrahydropyridin-3-yl)phenyl)-6-oxo-1,6-dihydropyridine-3-carboxamide]	1.67	223	13.6
C[C@@H]1CN(c2ncc(-c3c(F)cc(N4C[C@@H](C)N(C)[C@@H](C)C4)c(NC(=O)c4ccc(F)cc4C(F)F)c3F)cn2)C[C@H](C)O1 [Example 109, 2-(Difluoromethyl)-N-(3-(2-((2S,6R)-2,6-dimethylmorpholino)pyrimidin-5-yl)-2,4-difluoro-6-((3S,5R)-3,4,5-trimethylpiperazin-1-yl)phenyl)-4-fluorobenzamide Formic Acid]	2.59	7.34	14.4
Cc1sc(-c2c(F)cc(N3CCN(C)[C@@H](C)C3)c(NC(=O)c3ccc(F)cc3C(F)F)c2F)nc1C(=O)N1CCCC1 [Example 153, (S)-2-(difluoromethyl)-N-(6-(3,4-dimethylpiperazin-1-yl)-2,4-difluoro-3-(5-methyl-4-(pyrrolidine-1-carbonyl)thiazol-2-yl)phenyl)-4-fluorobenzamide]	1.18	70.1	5
C[C@H]1CN(c2cc(F)c(C3=CCCN(c4ccnc(C#N)n4)C3)c(F)c2NC(=O)c2c[nH]c(=O)cc2C(F)(F)F)CCN1C [Example 114, (S)—N-(3-(1-(2-cyanopyrimidin-4-yl)-1,2,5,6-tetrahydropyridin-3-yl)-6-(3,4-dimethylpiperazin-1-yl)-2,4-difluorophenyl)-6-oxo-4-(trifluoromethyl)-1,6-dihydropyridine-3-carboxamide]	2.42	36.6	15.9
COc1cnc(N2CCC=C(c3c(F)cc(N4C[C@@H](C)N(C)[C@@H](C)C4)c(NC(=O)c4c[nH]c(=O)cc4C(F)(F)F)c3F)C2)nc1 [Example 138, N-(2,4-difluoro-3-(1-(5-methoxypyrimidin-2-yl)-1,2,5,6-tetrahydropyridin-3-yl)-6-((3S,5R)-3,4,5-trimethylpiperazin-1-yl)phenyl)-6-oxo-4-(trifluoromethyl)-1,6-dihydropyridine-3-carboxamide]	1.93	109	19.5

Now from value to compound:

Kd (WDR5 [1]) [nM]	EC50 (MV4-11 cells) [nM]	IC50 (WDR5 [2]) [nM]	Compound
0.91	26.7	16.5	C[C@@H]1CN(c2cc(F)c(-c3cnc(N(C)C)nc3)c(F)c2NC(=O)c2c[nH]c(=O)cc2C(F)(F)F)C[C@H](C)N1C [Example 70, N-(3-(2-(dimethylamino)pyrimidin-5-yl)-2,4-difluoro-6-((3S,5R)-3,4,5-trimethylpiperazin-1-yl)phenyl)-6-oxo-4-(trifluoromethyl)-1,6-dihydropyridine-3-carboxamide]
0.43	88.3	14	C[C@@H]1CN(c2ncc(-c3c(F)cc(N4CCN(C)[C@@H](C)C4)c(NC(=O)c4ccc(F)cc4C(F)F)c3F)cn2)C[C@@H](C)O1 [Example 158, 2-(Difluoromethyl)-N-(3-(2-((2R,6R)-2,6-dimethylmorpholino)pyrimidin-5-yl)-6-((S)-3,4-dimethylpiperazin-1-yl)-2,4-difluorophenyl)-4-fluorobenzamide]
0.9	20.4	11.7	C[C@H]1CN(c2ncc(-c3c(F)cc(N4CCN(C)[C@@H](C)C4)c(NC(=O)c4c[nH]c(=O)cc4C(F)F)c3F)cn2)C[C@H](C)O1 [Example 119, 4-(Difluoromethyl)-N-(3-(2-((2S,6S)-2,6-dimethylmorpholino)pyrimidin-5-yl)-6-((S)-3,4-dimethylpiperazin-1-yl)-2,4-difluorophenyl)-6-oxo-1,6-dihydropyridine-3-carboxamide]
0.82	31	21.3	C[C@@H]1CN(c2ncc(-c3c(F)cc(N4C[C@@H](C)N(C)[C@@H](C)C4)c(NC(=O)c4c[nH]c(=O)cc4C(F)(F)F)c3F)cn2)C[C@H](C)O1 [Example 8, N-(3-(2-((2S,6R)-2,6-dimethylmorpholino)pyrimidin-5-yl)-2,4-difluoro-6-((3S,5R)-3,4,5-trimethylpiperazin-1-yl)phenyl)-6-oxo-4-(trifluoromethyl)-1,6-dihydropyridine-3-carboxamide]
1.02	124	18.9	C[C@@H]1CN(c2ccc(-c3c(F)cc(N4CCN(C)[C@@H](C)C4)c(NC(=O)c4ccc(F)cc4C(F)(F)F)c3F)cn2)CCO1 [Example 172, N-(6-((S)-3,4-dimethylpiperazin-1-yl)-2,4-difluoro-3-(6-((R)-2-methylmorpholino)pyridin-3-yl)phenyl)-4-fluoro-2-(trifluoromethyl)benzamide]
1.12	36.5	15.2	C[C@@H]1CN(c2ncc(-c3c(F)cc(N4C[C@@H](C)N(C)[C@@H](C)C4)c(NC(=O)c4c[nH]c(=O)cc4C(F)F)c3F)cn2)C[C@@H](C)O1 [Example 116, 4-(Difluoromethyl)-N-(3-(2-((2R,6R)-2,6-dimethylmorpholino)pyrimidin-5-yl)-2,4-difluoro-6-((3S,5R)-3,4,5-trimethylpiperazin-1-yl)phenyl)-6-oxo-1,6-dihydropyridine-3-carboxamide]
